Test results: ChEMBL document CHEMBL4152310, “Design and synthesis of novel benzenesulfonamide containing 1,2,3-triazoles as potent human carbonic anhydrase isoforms I, II, IV and IX inhibitors” (Eur J Med Chem, 2018)

Target: Carbonic anhydrase 9 (Homo sapiens, UniProt Q16790)
Experiment: Binding affinity to human carbonic anhydrase 9 by stopped flow CO2 hydration assay

| Structure (SMILES) | Ki [nM] |
| --- | --- |
| NS(=O)(=O)c1ccc(-n2cc(C(=O)c3ccc(Br)cc3)nn2)cc1 | 44.7 |
| NS(=O)(=O)c1ccc(-n2cc(C(=O)c3ccc(F)cc3)nn2)cc1 | 47.8 |
| NS(=O)(=O)c1ccc(-n2nnc(C(=O)c3ccccc3)c2C(F)(F)F)cc1 | 39.8 |
| NS(=O)(=O)c1ccc(-n2nnc(C(=O)c3ccc(Cl)cc3)c2C(F)(F)F)cc1 | 48.2 |
| Cc1ccc(C(=O)c2cn(-c3ccc(S(N)(=O)=O)cc3)nn2)cc1 | 324 |
| NS(=O)(=O)c1ccc(-n2cc(C(=O)c3ccccc3)nn2)cc1 | 136 |
| NS(=O)(=O)c1ccc(-n2cc(C(=O)c3ccc4ccccc4c3)nn2)cc1 | 127 |
| NS(=O)(=O)c1ccc(-n2nnc(C(=O)c3ccc(Br)cc3)c2C(F)(F)F)cc1 | 35.8 |
| NS(=O)(=O)c1ccc(-n2nnc(C(=O)c3ccco3)c2C(F)(F)F)cc1 | 190 |
| NS(=O)(=O)c1ccc(-n2nnc(C(=O)c3ccccn3)c2C(F)(F)F)cc1 | 156 |
| NS(=O)(=O)c1ccc(-n2cc(C(=O)c3ccco3)nn2)cc1 | 217 |
| Cc1ccc(C(=O)c2nnn(-c3ccc(S(N)(=O)=O)cc3)c2C(F)(F)F)cc1 | 144 |
| NS(=O)(=O)c1ccc(-n2nnc(C(=O)c3cccs3)c2C(F)(F)F)cc1 | 45.4 |

The next lines start with the values.

| Ki [nM] | Structure (SMILES) |
| --- | --- |
| 141 | COc1ccc(C(=O)c2nnn(-c3ccc(S(N)(=O)=O)cc3)c2C(F)(F)F)cc1 |
| 248 | NS(=O)(=O)c1ccc(-n2nnc(C(=O)c3ccc4ccccc4c3)c2C(F)(F)F)cc1 |
| 362 | NS(=O)(=O)c1ccc(-n2cc(C(=O)c3cccs3)nn2)cc1 |
| 27.3 | NS(=O)(=O)c1ccc(-n2cc(C(=O)c3ccc(Cl)cc3)nn2)cc1 |
| 182 | NS(=O)(=O)c1ccc(-n2cc(C(=O)c3ccccn3)nn2)cc1 |
| 38.1 | NS(=O)(=O)c1ccc(-n2nnc(C(=O)c3ccc(F)cc3)c2C(F)(F)F)cc1 |
| 145 | COc1ccc(C(=O)c2cn(-c3ccc(S(N)(=O)=O)cc3)nn2)cc1 |
